From patent US8138170B2, “Immunosuppressive Ningalin compounds” (Memorial Sloan-Kettering Cancer Center, priority 2004, dated 2012)
Several values for one entry are separate records, joined by “and”; a condition that tells them apart may be missing. Equal entries are not always repeated. Where two headings read alike, the source gives them in different places.

Experiments:
[1] = system: P388/DX leukemic cells resistant to Adriamycin; conditions: for Log cell kill: calculated assuming doubling time 0.4 day
[2] = system: carrageenan-induced paw edema; experiment: Carrageenan-induced paw edema; assay type: in vivo, B6D2F1 mice; conditions: for Pedis Area: individual mice 1-4; for Pedis Area, Mean: mean of 4 mice
Experimental: Carrageene (1%, 30 μl) was injected i.m. into the pedis of B6D2F1 mice (4 mice/group) to induced edemic inflammation at 0 hours. N3, N5 (i.p. injection) or oral administration of aspirin 500 mg/kg, or topical application of hydrocortisone cream (1%) or Lidex cream (0.05%) to the pedis skins were given at −1, 6, 12 and 24 hours. The control mice received dimethylsulfoxide (the vehicle of ningalins). The pedis areas (in mm^2) were measured at 0, 3, 6, 12, 24, 36 and 48 hours.

human lymphocytes = experiment: Inhibition of PHA-stimulated lymphocyte proliferation ([3H]thymidine incorporation); assay type: cell-based; conditions: for IC50: read-out: Immunosuppressive Effect (IC50 in μM) [B]
P388/DX leukemic cells = assay type: in vivo, B6D2F1 mice; conditions: for Log cell kill: calculated assuming doubling time 0.4 day
[3] = Cytotoxicity measured by cell proliferation inhibition; assay type: cell-based
C57BL/6 heart allografts = experiment: Heterotopic heart transplantation in mice; assay type: in vivo, Balb/c mice
Experimental: Heterotopic heart transplantation was performed in rats and mice. In brief, heart transplantation was performed by previously described modified method. Hearts harvested from donors were perfused with chilled saline and immediately transplanted to recipients under full anesthesia. Suture 10-0 in rats and 12-0 in mice (Ethicon; Somerville, N.J.) was used to perform anastomosis of aorta to aorta and pulmonary artery to vena cava. Heartbeat was evaluated daily and the day of complete cessation was considered rejection. Animals that died within three days after transplantation were excluded from the analysis (less than 5%).
Mice were also transplanted with heart allografts. In particular, untreated Balb/c (H-2^d) recipients rejected C57BL/6 (H-2^b) heart allografts at a MST of 7.8±0.84 days (n=5). Treatment with 40 mg/kg N5, QDx7, extended heart allograft survival to 13.33±2.52 days, which increased life span 71% (n=3; p<0.03).
Mice heart allografts were treated with 20 mg/kg of N3, QDx7, i.p. In particular, untreated Balb/c (H-2^d) recipients rejected C57BL/6 ([…]) heart allografts at a MST of […] days (n=5). Treatment with 20 mg/kg of N3 (i.e., one-half of dose of N5) extended heart allograft survival to 18.75±3.86 days (n=4; p<0.0005), an increase in lifespan of 140%.

[4] = Adriamycin 3.0 mg/kg iv alone or with N3 20 mg/kg ip, QD × 3
[5] = N3 20 mg/kg ip and/or Adriamycin 1.5 mg/kg iv, QD × 3
[6] = 0 hr, aspirin 500 mg/kg oral, N3 100 mg/kg i.p., N5 50 mg/kg i.p., hydrocortisone cream 1%, Lidex cream 0.05% topical, given at −1, 6, 12, 24 hours
[7] = PHA-stimulated human lymphocyte proliferation
[8] = N3 20 mg/kg ip and/or Taxol 5.0 mg/kg iv, QD × 3
[9] = Taxol 10.0 mg/kg iv alone or with N3 20 mg/kg ip, QD × 3

Compound | Lifespan increase (%) [1, 5] | Median survival time (days ± SD) [1, 5] [days] | Pedis Area [2, 6] [mm^2] | Pedis Area, Mean ([2]; 0 hr, doses as E35) [mm^2] | Pedis Area ([2]; 3 hr, doses as E35) | Pedis Area, Mean ([2]; 3 hr, doses as E35) [mm^2] | Pedis Area ([2]; 6 hr, doses as E35) | Pedis Area, Mean ([2]; 6 hr, doses as E35) [mm^2] | Pedis Area ([2]; 12 hr, doses as E35) | Pedis Area, Mean ([2]; 12 hr, doses as E35) [mm^2] | Pedis Area ([2]; 24 hr, doses as E35) | Pedis Area, Mean ([2]; 24 hr, doses as E35) [mm^2] | Pedis Area ([2]; 36 hr, doses as E35) | Pedis Area, Mean ([2]; 36 hr, doses as E35) [mm^2] | Pedis Area ([2]; 48 hr, doses as E35) | Pedis Area, Mean ([2]; 48 hr, doses as E35) [mm^2] | IC50 (human lymphocytes; [7]) [µM] | Lifespan increase (%) (P388/DX leukemic cells; [8]) | Median survival time (days ± SD) (P388/DX leukemic cells; [8]) [days] | IC50 [3] [µM] | further results
COc1cccc2c1C(=O)c1c(O)c3c(c(O)c1C2=O)C[C@@](O)(C(=O)CO)C[C@@H]3O[C@H]1C[C@H](N)[C@H](O)[C@H](C)O1 [Adriamycin, Doxorubicin] | +7% | 11.25 ± 1.75 |  |  |  |  |  |  |  |  |  |  |  |  |  |  |  |  |  |  | Log cell kill ([1]; Adriamycin 1.5 mg/kg iv alone or with N3 20 mg/kg ip): 0.56; Lifespan increase (%) [1, 4]: +15%; Lifespan increase (days) [1, 4]: +1.58 days; Median survival time (days ± SD) [1, 4]: 12.08 ± 1.81 days; Log cell kill ([1]; Adriamycin 3.0 mg/kg iv alone or with N3 20 mg/kg ip): 1.19; Lifespan increase (days) [1, 5]: +0.75 days
CC(=O)Oc1ccccc1C(=O)O [Aspirin, aspirin, reference compound] |  |  | 100 | 100 | 142.2 mm^2 and 130.5 mm^2 and 122 mm^2 and 134.5 mm^2 | 132.3 | 151.4 mm^2 and 139.8 mm^2 and 124.6 mm^2 and 149.6 mm^2 | 141.4 | 138.5 mm^2 and 135.6 mm^2 and 120.3 mm^2 and 138.9 mm^2 | 133.3 | 116.5 mm^2 and 116.9 mm^2 and 108.5 mm^2 and 118.6 mm^2 | 115.1 | 114.7 mm^2 and 107.6 mm^2 and 94.1 mm^2 and 109.7 mm^2 | 106.5 | 118.3 mm^2 and 105.9 mm^2 and 92.4 mm^2 and 111.5 mm^2 | 107 |  |  |  |  | 
COc1ccc(CCn2cc(-c3ccc(OC)c(OC)c3)c3c4cc(OC)c(OC)cc4oc(=O)c32)cc1OC [Ningalin N3, 1-(3,4-Dimethoxy-phenyl)-3-[2-(3,4-dimethoxy-phenyl)-ethyl]-7,8-dimethoxy-3H-5-oxa-3-aza-cyclopenta[α]naphthalen-4-one] | −12% | 9.25 ± 0.66 | 100 | 100 | 134.4 mm^2 and 142.7 mm^2 and 141.7 mm^2 and 139.5 mm^2 | 139.6 | 140.6 mm^2 and 159.2 mm^2 and 153.4 mm^2 and 151.8 mm^2 | 151.3 | 140.6 mm^2 and 150.5 mm^2 and 139.8 mm^2 and 135.1 mm^2 | 141.5 | 134.4 mm^2 and 142.7 mm^2 and 136.9 mm^2 and 128.1 mm^2 | 135.5 | 131.1 mm^2 and 136.9 mm^2 and 121.9 mm^2 and 127.9 mm^2 | 129.5 | 131.1 mm^2 and 136.9 mm^2 and 115.8 mm^2 and 126 mm^2 | 127.5 | 0.51 ± 0.19 | −13% | 8.00 ± 0.54 | 51.3 ± 18 | anti-inflammatory effect (FIG. 3) ([2]; N5 50 mg/kg i.p., N3 100 mg/kg i.p., all drugs: at 12-48 hours): produced an anti-inflammatory effect; lifespan of tumor bearing mice compared to saline treated controls (P388/DX leukemic cells; N3 20 mg/kg i.p. daily for three days): decreased the lifespan; Lifespan increase (P388/DX leukemic cells; [8]): -1.19 days; Lifespan increase [1, 5]: -1.25 days; decreased the lifespan ([1]; N3 alone 20 mg/kg i.p. daily for three days, vs control): 12%; MST ± SD days (heart allograft survival) (C57BL/6 heart allografts; B6 heart to Balb/c, N3 20 mg/kg QDx7 i.p., 20 mg/kg): 18.75±3.86 days; increase in lifespan (C57BL/6 heart allografts; heart allograft, N3 20 mg/kg QDx7 i.p., vs untreated): 140%; Survival days (individual animals) (C57BL/6 heart allografts; heart, N3 20 mg/kg, 20 mg/kg): 19 days and 24 days and 15 days and 17 days
COC(=O)c1c(-c2cc(OC)c(OC)c(OC)c2)c(-c2cc(OC)c(OC)c(OC)c2)c(C(=O)OC)n1CCc1ccc(OC)cc1 [Ningalin N6, 1-[2-(4-Methoxy-phenyl)-ethyl]-3,4-bis-(3,4,5-trimethoxy-phenyl)-1H-pyrrole-2,5-dicarboxylic acid dimethyl ester] |  |  |  |  |  |  |  |  |  |  |  |  |  |  |  |  | 1.61 ± 0.31 |  |  | 70.2 ± 20.5 | Selectivity Ratio [A]/[B] (human lymphocytes; cytotoxicity IC50 / immunosuppressive IC50): 43.6
CC(=O)O[C@H]1C(=O)[C@@]2(C)[C@H]([C@H](OC(=O)c3ccccc3)[C@]3(O)C[C@H](OC(=O)[C@H](O)[C@@H](NC(=O)c4ccccc4)c4ccccc4)C(C)=C1C3(C)C)[C@]1(OC(C)=O)CO[C@@H]1C[C@@H]2O [Taxol, paclitaxel] |  |  |  |  |  |  |  |  |  |  |  |  |  |  |  |  |  | +4% | 9.56 ± 0.62 |  | Lifespan increase (days) (P388/DX leukemic cells; [8]): +0.37 days; Log cell kill (P388/DX leukemic cells; Taxol 5.0 mg/kg iv alone or with N3 20 mg/kg ip): 0.28; Lifespan increase (%) (P388/DX leukemic cells; [9]): +4%; Lifespan increase (days) (P388/DX leukemic cells; [9]): +0.37 days; Median survival time (days ± SD) (P388/DX leukemic cells; [9]): 9.56 ± 0.88 days; Log cell kill (P388/DX leukemic cells; Taxol 10.0 mg/kg iv alone or with N3 20 mg/kg ip): 0.28
COc1ccc(CCN(C)CCCC(C#N)(c2ccc(OC)c(OC)c2)C(C)C)cc1OC (centres unmarked) [Verapamil, reference compound] |  |  |  |  |  |  |  |  |  |  |  |  |  |  |  |  |  |  |  |  | IC50 (human lymphocytes; Homo sapiens, Lymphocyte): 6.9 ± 1.01 µM
